pIC50: −log10 of the molar value.
Biological target: recombinant human α5β1 (Homo sapiens, UniProt P05556+P08648)
Experiment: In Vitro Binding Assay (a): inhibition of binding of α5β1 integrin to a fragment of human fibronectin (Fn9-10), Origen electrochemiluminescence
Settings: geometric mean where tested more than once
From the text: The assay determined the ability of compounds to inhibit binding of α5β1 integrin to a cognate ligand, a fragment of human fibronectin. The assay used Origen technology (IGEN International) to measure the compound activity. Briefly, α5β1 integrin was coated onto epoxy-paramagnetic beads (Dynal Biotech UK, Bromborough, Wirral, CH62 3QL, UK, Catalogue No 140.11) and biotinylated-fibronectin ligand was coupled to strepatividin labeled Tag-NHS-Ester (BioVeris Corporation, Witney, Oxfordshire, OX28 4GE, UK, Catalogue No 110034). The ruthenium-labeled tag emits an electrochemiluminescence signal upon stimulation which is detected by the Origen reader. Thus, interaction of integrin and ligand causes association of bead and tag, and the resulting electrochemiluminescence signal reflects the level of integrin interaction with fibronectin.
20 μg of recombinant human α5β1 was coated onto 4×10(7) epoxy-paramagnetic beads according to manufacturers instructions at 4° C. for 24 hours. Integrin coating and corresponding activity was subsequently measured for each batch but typically, 25 ng of coated protein was used per assay well.
A DNA fragment encoding the domains 9-10 (amino-acids 1325-1509) of human fibronectin (Swiss-Prot Accession No. P02751) was isolated from cDNA libraries using standard molecular biology and PCR cloning techniques. The cDNA fragment was sub-cloned into a pT73.3 expression vector containing a GST-epitope tag (developed at AstraZeneca; Bagnall et al., Protein Expression and Purification, 2003, 27: 1-11). Following expression in E. coli, the expressed protein, termed Fn9-10, was purified using the GST-tag using standard purification techniques. The recombinant Fn9-10 was subsequently biotinylated using a EZ-link Sulfo-NHS-LC-Biotinylation kit (Perbio Science UK Ltd., Cramlington, Northumberland, NE23 1WA, UK, Catalogue No. 21335) and made to give a final concentration of approximately 1 mg/ml. Tag-NHS-Ester was labeled with streptavidin by incubation at room temperature following manufacturers instructions and buffer-exchanged into PBS to give a concentration of 0.5 mg/ml. Immediately prior to the assay, biotinylated-Fn9-10 and Streptavidin-labeled Tag were diluted in Assay Buffer to give a final concentrations of 0.6 ug/ml and 1.5 ug/ml respectively. The Fn9-10 and Tag solutions were then mixed together in equal volumes and incubated on ice for at least 30 minutes prior to the assay.
Aliquots (20 μl) of each compound dilution were placed into each well of a 384-well round bottomed polypropylene plate (Matrix Technologies, Wilmslow, Cheshire, SK9 3LP, Catalogue No. 4340 384).
For the assay, 25 ng (20 ul) of a5b1-bead suspension and 40 μl of the Fn9-10/Tag pre-incubated solution were added to each well containing 20 μl of compound or control solution. Assay plates were then incubated at room temperature for a minimum of 6 hours before being analysed on an Origen plate reader. The minimum value was subtracted from all values, and the signal was plotted against compound concentration to generate IC50 data.
The data in the above table was generated in an assay substantially as described above in relation to Binding Assay (a). Some of the compounds shown in the table were tested more than once in the assay. For those compounds the IC50 value shown is the geometric mean of the measured IC50 values.

Sequence of recombinant human α5β1 (P08648 42-1049): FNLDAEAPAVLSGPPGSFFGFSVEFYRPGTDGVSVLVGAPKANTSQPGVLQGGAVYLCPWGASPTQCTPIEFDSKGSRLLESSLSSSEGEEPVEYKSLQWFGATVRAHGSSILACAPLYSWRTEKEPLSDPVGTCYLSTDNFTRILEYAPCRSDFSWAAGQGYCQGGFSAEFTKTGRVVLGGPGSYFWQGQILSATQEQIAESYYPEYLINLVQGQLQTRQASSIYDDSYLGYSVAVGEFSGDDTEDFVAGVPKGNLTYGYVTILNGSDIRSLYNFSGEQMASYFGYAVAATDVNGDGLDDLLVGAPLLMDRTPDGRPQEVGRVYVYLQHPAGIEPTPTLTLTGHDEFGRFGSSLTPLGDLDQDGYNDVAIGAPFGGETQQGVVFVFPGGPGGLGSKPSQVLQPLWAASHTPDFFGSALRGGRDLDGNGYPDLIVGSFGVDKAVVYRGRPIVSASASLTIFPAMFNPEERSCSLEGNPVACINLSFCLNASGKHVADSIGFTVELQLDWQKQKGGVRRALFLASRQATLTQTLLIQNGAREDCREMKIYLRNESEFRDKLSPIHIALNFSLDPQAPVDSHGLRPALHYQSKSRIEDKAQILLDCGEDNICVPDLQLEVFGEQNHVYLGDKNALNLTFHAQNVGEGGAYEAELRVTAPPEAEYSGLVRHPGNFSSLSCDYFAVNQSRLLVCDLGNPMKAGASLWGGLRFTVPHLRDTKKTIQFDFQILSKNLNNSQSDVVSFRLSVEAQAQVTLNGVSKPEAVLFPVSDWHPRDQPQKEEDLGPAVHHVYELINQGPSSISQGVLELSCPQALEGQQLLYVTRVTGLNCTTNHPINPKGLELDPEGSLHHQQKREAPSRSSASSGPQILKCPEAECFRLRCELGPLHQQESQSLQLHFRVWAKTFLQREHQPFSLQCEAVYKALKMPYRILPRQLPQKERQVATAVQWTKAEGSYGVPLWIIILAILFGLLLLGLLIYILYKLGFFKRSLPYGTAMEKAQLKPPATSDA
Sequence of recombinant human α5β1 (P05556 21-798): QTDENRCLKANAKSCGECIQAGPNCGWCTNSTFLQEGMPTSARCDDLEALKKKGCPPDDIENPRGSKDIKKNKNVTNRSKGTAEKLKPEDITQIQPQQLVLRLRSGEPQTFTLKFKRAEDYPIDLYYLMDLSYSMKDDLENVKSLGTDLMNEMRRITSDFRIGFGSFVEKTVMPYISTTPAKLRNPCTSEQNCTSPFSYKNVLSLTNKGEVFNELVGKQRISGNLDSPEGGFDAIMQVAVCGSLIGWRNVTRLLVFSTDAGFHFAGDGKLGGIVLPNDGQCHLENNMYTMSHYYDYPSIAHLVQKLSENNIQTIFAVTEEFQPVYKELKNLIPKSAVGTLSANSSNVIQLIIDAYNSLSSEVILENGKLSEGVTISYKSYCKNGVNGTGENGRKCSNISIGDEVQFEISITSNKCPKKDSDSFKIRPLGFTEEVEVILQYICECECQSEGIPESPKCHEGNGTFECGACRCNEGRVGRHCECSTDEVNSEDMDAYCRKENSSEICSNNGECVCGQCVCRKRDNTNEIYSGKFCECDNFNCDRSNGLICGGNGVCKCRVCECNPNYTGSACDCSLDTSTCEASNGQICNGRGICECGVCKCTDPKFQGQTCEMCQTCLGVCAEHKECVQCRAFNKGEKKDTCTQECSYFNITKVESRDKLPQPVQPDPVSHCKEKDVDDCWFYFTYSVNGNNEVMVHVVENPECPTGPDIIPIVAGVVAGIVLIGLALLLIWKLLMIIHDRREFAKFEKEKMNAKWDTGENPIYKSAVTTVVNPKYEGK

SMILES	pIC50
CNc1cccc(CCOc2ccc(C[C@H](NC(=O)c3cnccc3C)C(=O)O)cc2)n1 [Example 1.10, O-{2-[6-(methylamino)pyridin-2-yl]ethyl}-N-[(4-methylpyridin-3-yl)carbonyl]-L-tyrosine]	7.64
CNc1cccc(CCOc2ccc(C[C@H](NC(=O)c3c(C)n[nH]c3C)C(=O)O)cc2)n1 [Example 1.13, N-[(3,5-dimethyl-1H-pyrazol-4-yl)carbonyl]-O-{2-[6-(methylamino)pyridin-2-yl]ethyl}-L-tyrosine]	7.77
O=C(N[C@@H](Cc1ccc(CCCc2ccc3c(n2)NCCC3)nc1)C(=O)O)c1sccc1Cl [Example 10, N-[(3-chloro-2-thienyl)carbonyl]-3-{6-[3-(5,6,7,8-tetrahydro-1,8-naphthyridin-2-yl)propyl]pyridin-3-yl}-L-alanine]	8.60
CNc1cccc(CCOc2ccc(C[C@H](NC(=O)c3sc(C)nc3C)C(=O)O)cc2)n1 [Example 1.5, N-[(2,4-dimethyl-1,3-thiazol-5-yl)carbonyl]-O-{2-[6-(methylamino)pyridin-2-yl]ethyl}-L-tyrosine]	7.39
O=C(N[C@@H](Cc1ccc(CCCc2ccc3c(n2)NCCC3)cn1)C(=O)O)c1sccc1Cl [Example 8, N-[(3-chlorothiophen-2-yl)carbonyl]-3-{5-[3-(5,6,7,8-tetrahydro-1,8-naphthyridin-2-yl)propyl]pyridin-2-yl}-L-alanine]	8.40
CNc1cccc(CCOc2ccc(C[C@H](NC(=O)c3ocnc3C)C(=O)O)cc2)n1 [Example 1.18, O-{2-[6-(methylamino)pyridin-2-yl]ethyl}-N-[(4-methyl-1,3-oxazol-5-yl)carbonyl]-L-tyrosine]	6.60
CNc1cccc(CCOc2ccc(C[C@H](NC(=O)c3sccc3C)C(=O)O)cc2)n1 [Example 1.8, O-{2-[6-(methylamino)pyridin-2-yl]ethyl}-N-[(3-methyl-2-thienyl)carbonyl]-L-tyrosine]	7.72
CNc1cccc(CCOc2ccc(C[C@H](NC(=O)c3c(Cl)c4ccccc4n3C)C(=O)O)cc2)n1 [Example 1.26, N-[(3-chloro-1-methyl-1H-indol-2-yl)carbonyl]-O-{2-[6-(methylamino)pyridin-2-yl]ethyl}-L-tyrosine]	6.95
CNc1cccc(CCOc2ccc(C[C@H](NC(=O)c3c[nH]nc3C)C(=O)O)cc2)n1 [Example 1.15, O-{2-[6-(methylamino)pyridin-2-yl]ethyl}-N-[(3-methyl-1H-pyrazol-4-yl)carbonyl]-L-tyrosine]	6.89
CNc1cccc(CCOc2ccc(C[C@H](NC(=O)c3ccncc3C)C(=O)O)cc2)n1 [Example 1.21, O-{2-[6-(methylamino)pyridin-2-yl]ethyl}-N-(3-methylisonicotinoyl)-L-tyrosine]	8.00
O=C(N[C@@H](Cc1ccc(OCCc2ccc3c(n2)NCCC3)nc1)C(=O)O)c1sccc1Cl [Example 9, N-[(3-chlorothiophen-2-yl)carbonyl]-3-{6-[2-(5,6,7,8-tetrahydro-1,8-naphthyridin-2-yl)ethoxy]pyridin-3-yl}-L-alanine]	8.15
CNc1cccc(CCOc2ccc(C[C@H](NC(=O)c3csc(C(C)C)c3)C(=O)O)cc2)n1 [Example 1.30, N-[(5-isopropyl-3-thienyl)carbonyl]-O-{2-[6-(methylamino)pyridin-2-yl]ethyl}-L-tyrosine]	6.88
CCCc1cc(C(=O)N[C@@H](Cc2ccc(OCCc3cccc(NC)n3)cc2)C(=O)O)cs1 [Example 1.29, O-{2-[6-(methylamino)pyridin-2-yl]ethyl}-N-[(5-propyl-3-thienyl)carbonyl]-L-tyrosine]	7.15
CNc1cccc(CCOc2ccc(C[C@H](NC(=O)c3sccc3Cl)C(=O)O)nc2)n1 [Example 7, N-[(3-chlorothiophen-2-yl)carbonyl]-3-(5-{2-[6-(methylamino)pyridin-2-yl]ethoxy}pyridin-2-yl)-L-alanine]	7.68
CNc1cccc(CCOc2ccc(C[C@H](NC(=O)c3scnc3C)C(=O)O)cc2)n1 [Example 1.16, O-{2-[6-(methylamino)pyridin-2-yl]ethyl}-N-[(4-methyl-1,3-thiazol-5-yl)carbonyl]-L-tyrosine]	7.62
CNc1cccc(CCOc2ccc(C[C@H](NC(=O)c3ccc(C)nc3Cl)C(=O)O)cc2)n1 [Example 1.2, N-[(2-chloro-6-methylpyridin-3-yl)carbonyl]-O-{2-[6-(methylamino)pyridin-2-yl]ethyl}-L-tyrosine]	7.72
CNc1cccc(CCOc2ccc(C[C@H](NC(=O)c3cc(Cl)sc3Cl)C(=O)O)cc2)n1 [Example 1.11, N-[(2,5-dichloro-3-thienyl)carbonyl]-O-{2-[6-(methylamino)pyridin-2-yl]ethyl}-L-tyrosine]	7.82

Further lines, results first:

pIC50	SMILES
8.30	O=C(N[C@@H](Cc1ccc(OCCc2ccc3c(n2)NCCO3)cc1)C(=O)O)c1ccncc1Cl [Example 4.4, N-[(3-chloropyridin-4-yl)carbonyl]-O-[2-(3,4-dihydro-2H-pyrido[3,2-b][1,4]oxazin-6-yl)ethyl]-L-tyrosine]
7.10	CNc1cccc(CCOc2ccc(C[C@H](NC(=O)c3oc4ccccc4c3C)C(=O)O)cc2)n1 [Example 2.5, O-{2-[6-(methylamino)pyridin-2-yl]ethyl}-N-[(3-methyl-1-benzofuran-2-yl)carbonyl]-L-tyrosine]
8.66	Cc1noc(C)c1C(=O)N[C@@H](Cc1ccc(CCCc2ccc3c(n2)NCCC3)cc1)C(=O)O [Example 5.4, N-[(3,5-dimethylisoxazol-4-yl)carbonyl]-4-[3-(5,6,7,8-tetrahydro-1,8-naphthyridin-2-yl)propyl]-L-phenylalanine]
9.00	Cc1noc(C)c1C(=O)N[C@@H](Cc1ccc(OCCc2ccc3c(n2)NCCO3)cc1)C(=O)O [Example 4.3, O-[2-(3,4-dihydro-2H-pyrido[3,2-b][1,4]oxazin-6-yl)ethyl]-N-[(3,5-dimethylisoxazol-4-yl)carbonyl]-L-tyrosine]
7.70	CNc1cccc(CCOc2ccc(C[C@H](NC(=O)c3cccnc3Cl)C(=O)O)cc2)n1 [Example 3.1, N-[(2-chloropyridin-3-yl)carbonyl]-O-{2-[6-(methylamino)pyridin-2-yl]ethyl}-L-tyrosine]
8.15	CNc1cccc(CCOc2ccc(C[C@H](NC(=O)c3ccncc3Cl)C(=O)O)cc2)n1 [Example 2.1, N-(3-chloroisonicotinoyl)-O-{2-[6-(methylamino)pyridin-2-yl]ethyl}-L-tyrosine]
6.45	CNc1cccc(CCOc2ccc(C[C@H](NC(=O)c3ccc(OC)nc3OC)C(=O)O)cc2)n1 [Example 3.2, N-[(2,6-dimethoxypyridin-3-yl)carbonyl]-O-{2-[6-(methylamino)pyridin-2-yl]ethyl}-L-tyrosine]
9.00	CCc1sccc1C(=O)N[C@@H](Cc1ccc(OCCc2ccc3c(n2)NCCC3)cc1)C(=O)O [Example 5.6, N-[(2-ethylthiophen-3-yl)carbonyl]-O-[2-(5,6,7,8-tetrahydro-1,8-naphthyridin-2-yl)ethyl]-L-tyrosine]
7.03	Cn1c(C(=O)N[C@@H](Cc2ccc(OCCc3ccc4c(n3)NCCC4)cc2)C(=O)O)c(Cl)c2ccccc21 [Example 5.3, N-[(3-chloro-1-methyl-1H-indol-2-yl)carbonyl]-O-[2-(5,6,7,8-tetrahydro-1,8-naphthyridin-2-yl)ethyl]-L-tyrosine]
7.64	CNc1cccc(CCOc2ccc(C[C@H](NC(=O)c3conc3C)C(=O)O)cc2)n1 [Example 2.2, O-{2-[6-(methylamino)pyridin-2-yl]ethyl}-N-[(3-methylisoxazol-4-yl)carbonyl]-L-tyrosine]
6.88	CNc1cccc(CCOc2ccc(C[C@H](NC(=O)c3ncccc3C)C(=O)O)cc2)n1 [Example 2.7, O-{2-[6-(methylamino)pyridin-2-yl]ethyl}-N-[(3-methylpyridin-2-yl)carbonyl]-L-tyrosine]
> 9.00	O=C(N[C@@H](Cc1ccc(OCCc2ccc3c(n2)NCCC3)cc1)C(=O)O)c1c(Cl)cncc1Cl [Example 5.5, N-[(3,5-dichloropyridin-4-yl)carbonyl]-O-[2-(5,6,7,8-tetrahydro-1,8-naphthyridin-2-yl)ethyl]-L-tyrosine]

Reference: patent US20090062267A1, “L-ALANINE DERIVATIVES AS a5beta1 ANTAGONISTS” (ASTRAZENECA AB, priority 2007, published 2009)
